In the NIST ThermoML archive (doi:10.1021/je030223f):
Values joined by “and” are separate entries in the source; they are usually repeats but may differ in a detail not shown here. Identical values can stand only once. Numbers after ± are expanded uncertainties.

Conditions: Liquid, Calculated from knudsen effusion weight loss

[I][Tm]([I])[I] [thulium triiodide]
Conditions	vapor or sublimation pressure
887 K	0.0001318 ± 5.5e-05 kPa
888 K	7.763e-05 ± 5.4e-05 kPa
897 K	0.0001585 ± 2.2e-05 kPa
899 K	0.0001175 ± 1.3e-05 kPa
902 K	0.0002089 ± 2.2e-05 kPa
905 K	0.0002344 ± 1.3e-05 kPa and 0.0001698 ± 8.5e-06 kPa
906 K	0.0002291 ± 1.7e-05 kPa and 0.0001585 ± 1.5e-05 kPa
907 K	0.0002089 ± 2.6e-05 kPa
909 K	0.0001585 ± 2.1e-05 kPa
911 K	0.0002884 ± 5.6e-05 kPa
912 K	0.0003162 ± 1.7e-05 kPa and 0.0002089 ± 1.7e-05 kPa
914 K	0.000309 ± 1.7e-05 kPa and 0.0002344 ± 1.4e-05 kPa
916 K	0.0002884 ± 2.9e-05 kPa and 0.0002089 ± 3e-05 kPa
920 K	0.0004467 ± 3.2e-05 kPa and 0.0004571 ± 3.3e-05 kPa
921 K	0.0003715 ± 6.8e-05 kPa
922 K	0.0003162 ± 2.3e-05 kPa
923 K	0.0003388 ± 3.8e-05 kPa
925 K	0.0004169 ± 3.8e-05 kPa and 0.0002884 ± 3.8e-05 kPa
928 K	0.0005012 ± 4.9e-05 kPa
930 K	0.000631 ± 3.5e-05 kPa and 0.0006607 ± 3.5e-05 kPa
931 K	0.0004169 ± 5.1e-05 kPa
932 K	0.000537 ± 3e-05 kPa and 0.0004677 ± 2.7e-05 kPa
933 K	0.000389 ± 4.9e-05 kPa
936 K	0.0006607 ± 9.5e-05 kPa
938 K	0.0008318 ± 4.9e-05 kPa and 0.0005495 ± 2.8e-05 kPa
939 K	0.0007079 ± 0.00016 kPa and 0.000912 ± 0.00016 kPa
940 K	0.0005248 ± 3.5e-05 kPa
941 K	0.0006607 ± 0.00014 kPa
946 K	0.000955 ± 0.0002 kPa and 0.001122 ± 0.00038 kPa
947 K	0.0007586 ± 0.0001 kPa
948 K	0.001148 ± 0.00012 kPa and 0.000955 ± 5.1e-05 kPa
949 K	0.0007244 ± 4.8e-05 kPa
951 K	0.0009772 ± 0.00012 kPa
953 K	0.001148 ± 0.0002 kPa
954 K	0.001479 ± 0.00018 kPa
955 K	0.001318 ± 0.00015 kPa and 0.001047 ± 0.00012 kPa
956 K	0.001585 ± 0.00021 kPa and 0.0009333 ± 0.00017 kPa
959 K	0.00182 ± 0.00021 kPa
960 K	0.001288 ± 0.00023 kPa
961 K	0.001445 ± 0.00022 kPa and 0.001905 ± 0.00025 kPa
963 K	0.001738 ± 0.0002 kPa and 0.001349 ± 0.00016 kPa
964 K	0.00123 ± 0.00021 kPa
966 K	0.002089 ± 0.00045 kPa and 0.002291 ± 0.00047 kPa and 0.001585 ± 0.00042 kPa
968 K	0.002754 ± 0.00034 kPa
969 K	0.001862 ± 0.00024 kPa
970 K	0.002512 ± 0.00039 kPa
971 K	0.002344 ± 0.00028 kPa and 0.001585 ± 0.00019 kPa
973 K	0.00257 ± 0.00031 kPa and 0.001862 ± 0.00022 kPa
975 K	0.002512 ± 0.00042 kPa
976 K	0.003631 ± 0.00052 kPa and 0.002951 ± 0.00046 kPa and 0.002138 ± 0.00042 kPa
978 K	0.003388 ± 0.00045 kPa
980 K	0.00309 ± 0.00043 kPa and 0.002042 ± 0.00035 kPa
981 K	0.002818 ± 0.00059 kPa and 0.002399 ± 0.00058 kPa
983 K	0.004365 ± 0.00058 kPa
984 K	0.002754 ± 0.00038 kPa
987 K	0.004571 ± 0.00071 kPa
988 K	0.00389 ± 0.001 kPa
989 K	0.002818 ± 0.00074 kPa and 0.00309 ± 0.00074 kPa
991 K	0.005495 ± 0.00077 kPa and 0.005012 ± 0.0007 kPa
993 K	0.003548 ± 0.00054 kPa
999 K	0.007079 ± 0.001 kPa and 0.00631 ± 0.0009 kPa
1002 K	0.004898 ± 0.00075 kPa
1006 K	0.009333 ± 0.0016 kPa
1008 K	0.00871 ± 0.0013 kPa
1014 K	0.01122 ± 0.0017 kPa
1017 K	0.01148 ± 0.0018 kPa
1024 K	0.01514 ± 0.0025 kPa
1025 K	0.01445 ± 0.0024 kPa
1032 K	0.01995 ± 0.0034 kPa
1034 K	0.0195 ± 0.0032 kPa
1043 K	0.02818 ± 0.005 kPa and 0.0257 ± 0.0045 kPa
1051 K	0.03715 ± 0.0067 kPa and 0.03311 ± 0.0059 kPa
